For test [1], the system named is Mice with Alcoholic Liver Injury. Briefly: Protective effect on alcoholic liver injury in mice (serum ALT, AST, TG). It counts as in vivo. The note with it: ethanol 3 g/kg/day, after 25 days. Here is the method:
The compound of formula (I) was prepared by the method of Example 7. In order to study its protective effect on alcoholic liver injury in mice, the following animal model was designed.
Three-week-old 30-35 g SPF male mice were randomly divided into normal control group, model group, low-dose group, high-dose group and tiopronin positive control group after adaptive feeding for 3 days. The normal control group and model group were fed with basic feed every day; low dose group and high dose group were fed with basic diet every day and were given the compound of formula (I) of 10 mg/kg/day and 50 mg/kg/day, respectively; tiopronin positive control group was fed with basic feed and 50 mg/kg/day tiopronin. Ethanol 3 g/kg/day (0.01 mL/g) was given to the model group, low dose group, high dose group and tiopronin positive control group. The normal control group was given distilled water of the same volume. After 25 days, fasting for 2 hours after the last administration, glutamic pyruvic transaminase (ALT), glutamic oxaloacetic transaminase (AST) and triglyceride (TG) were measured in serum by decapitation.

A short description of test [2]: DPPH radical scavenging activity assay. Format: biochemical. The note with it: for DPPH Clearance rate: n = 3. An excerpt: 2,2-Diphenyl-1-picryl hydrazyl (DPPH) is an organic compound composed of a stable organic radical. In the DPPH molecule, due to the presence of multiple electron-withdrawing —NO2 and large π bonds of the benzene ring, nitrogen free radical is stabilized. Its methanol solution is purple and has a maximum absorption peak at 517 nm. After the addition of an antioxidant, DPPH captures an electron to be paired with the free electron, and the purple fades and turns into a yellow substance. The absorption at 517 nm disappears, and the degree of fading is quantitatively related to the number of electrons it captures. Based on this principle, a spectrophotometer is used to detect the change of the absorbance of the DPPH radical and the sample solution, and the ability of the sample to provide hydrogen atoms and scavenge free radicals can be measured.
Preparation of DPPH solution: measuring exact amount of 2,2-diphenyl-1-picryl hydrazyl (DPPH) and dissolving in toluene to prepare a 0.2 mmol/L DPPH solution, stored at 0° C. in dark.
Preparation of test solution: Vc (vitamin C, positive control), compound of formula (I) (sample), silibinin (control) and 3,3′-thiodipropionic acid (control). The sample solution was subjected to gradient dilution with toluene, and three sets of controls were separately dissolved in a test tube with a certain amount of toluene to prepare the same concentration gradient as the sample.
Sample liquid absorbance measurement: Take 2 mL of sample solution (Table 2 Vc, B, C), add 2 mL of DPPH solution with concentration of 2×10^−4 mol/L, mix and react in the dark at room temperature for 30 min, adjust to zero with toluene, and measure at 517 nm. The absorbance Ai was simultaneously measured for the absorbance Aj of 2 mL of toluene mixed with 2 mL of the sample solution and the absorbance Ao of 2 mL of DPPH solution mixed with 2 mL of toluene (the experimental results are shown in Table 3).
Clearance calculation: clearance rate (%)=[1−(Ai−Aj)/Ao]*100%
(DPPH is a stable violet radical that fades when it is reduced.)

The results in this text go back to US10766885B1, “Silibinin 3,3′-thiodipropionic acid ester with hepatoprotective activity and a method of preparing the same” (SHAANXI UNIVERSITY OF SCIENCE AND TECHNOLOGY, priority 2020, dated 2020).

In test [1] (50 mg/kg/day), `CC(S)C(=O)NCC(=O)O` (stereo not shown) [Tiopronin, tiopronin] came in with an ALT of 63.45 ± 9.53 U/L, an AST of 143.32 ± 15.46 U/L and a TG of 1.336 ± 0.62 mmol/L.

As for `COc1cc(C2Oc3cc([C@H]4Oc5cc(O)cc(O)c5C(=O)[C@@H]4O)ccc3OC2CO)ccc1O` (stereo partly shown) [B, Silibinin], the “DPPH Clearance rate” value in test [2] (1.76 ppm) was 8.42%; in test [2] (8.80 ppm), 9.16%; in test [2] (21.12 ppm), 22.43%; in test [2] (42.24 ppm), 27.10%; in test [2] (79.20 ppm), 39.53%; in test [2] (112.64 ppm) it was 45.87%. Also, the “DPPH Clearance rate” value in test [2] (281.60 ppm) was found to be 60.25%; in test [2] (492.80 ppm) it was 65.88%; in test [2] (792.00 ppm) it was 69.85%; in test [2] (915.20 ppm), 72.76%.

For `O=C1O[C@H]([C@@H](O)CO)C(O)=C1O` [Vc, vitamin C], the “DPPH Clearance rate” value is 23.16% in test [2] (1.76 ppm); 33.47% in test [2] (8.80 ppm); 79.63% in test [2] (21.12 ppm); 89.55% in test [2] (42.24 ppm); 97.42% in test [2] (79.20 ppm); 97.53% in test [2] (112.64 ppm). The “DPPH Clearance rate” value in test [2] (281.60 ppm) came to 98.29%; in test [2] (492.80 ppm) it was 99.06%; in test [2] (792.00 ppm), 99.10%; in test [2] (915.20 ppm), 99.28%.

Take `COc1cc(C2Oc3cc([C@H]4Oc5cc(O)cc(O)c5C(=O)[C@@H]4O)ccc3OC2COC(=O)CCSCCC(=O)OCC2Oc3ccc([C@H]4Oc5cc(O)cc(O)c5C(=O)[C@@H]4O)cc3OC2c2ccc(O)c(OC)c2)ccc1O` (stereo partly drawn) [Compound of Formula (I), bis((3-(4-hydroxy-3-methoxyphenyl)-6-((2R,3R)-3,5,7-trihydroxy-4-oxochroman-2-yl)-2,3-dihydrobenzo[b][1,4]dioxin-2-yl)methyl) 3,3′-thiodipropionate]: the “scavenging ability compared with the positive control Vc group” value in test [2] is on record as “slightly weaker”. For the same molecule, the “DPPH Clearance rate” value in test [2] (1.76 ppm) is on record as 13.11%; in test [2] (8.80 ppm), 20.80%; in test [2] (21.12 ppm), 34.16%; in test [2] (42.24 ppm), 44.12%; in test [2] (79.20 ppm), 68.42%; in test [2] (112.64 ppm), 75.23%. The “DPPH Clearance rate” value in test [2] (281.60 ppm) is given as 81.21%; in test [2] (492.80 ppm), 84.70%; in test [2] (792.00 ppm), 87.06%; in test [2] (915.20 ppm) it was 89.96%. Besides, the “scavenging ability to scavenge DPPH free radicals compared with silibinin (B) and 3,3′-thiodipropionic acid (C) alone” value in test [2] (at the same concentration) is on record as “better”. Further, the “highest scavenging rate of DPPH radical” value in test [2] (in the determined concentration range) is given as 89.96%. The ALT in test [1] (10 mg/kg/day) was 60.88 ± 9.75 U/L; in test [1] (50 mg/kg/day) it was 56.17 ± 3.45 U/L. The figures for the AST in test [1] (10 mg/kg/day) and in test [1] (50 mg/kg/day) were 138.53 ± 17.85 U/L and 132.56 ± 7.21 U/L, respectively. For the same molecule, the TG in test [1] (10 mg/kg/day) is 0.973 ± 0.25 mmol/L; in test [1] (50 mg/kg/day) it was 0.877 ± 0.36 mmol/L.

Turning to `O=C(O)CCSCCC(=O)O` [C, 3,3′-Thiodipropionic acid], the “DPPH Clearance rate” value in test [2] (1.76 ppm) is 6.85%; in test [2] (8.80 ppm), 8.38%; in test [2] (21.12 ppm) it was 17.13%; in test [2] (42.24 ppm), 22.38%; in test [2] (79.20 ppm), 39.55%; in test [2] (112.64 ppm), 43.58%. Further, the “DPPH Clearance rate” value in test [2] (281.60 ppm) came to 52.23%; in test [2] (492.80 ppm), 59.36%; in test [2] (792.00 ppm), 64.55%; in test [2] (915.20 ppm), 68.22%.
